{"source": "patent US20170341994A1", "about": "“PLANT GROWTH REGULATOR AND A METHOD OF USING THE SAME” (GLUCAN BIOLOGICAL TECHNOLOGY CO., LTD, priority 2016, published 2017)", "origin": "cited, not measured here", "tested_on": "tumor", "settings": "some studies", "data": [{"substance": "β-glucan", "values": [{"measurement": "inhibition of tumor growth", "result": "more than 95%"}]}]}
